Values joined by “and” are separate entries in the source; they are usually repeats but may differ in a detail not shown here. Equal entries are not always repeated. Inconclusive results and toxic doses are left out. How the source made its calls: active means survival T/C of 150% or more; inactive means T/C below 125% in these data.
Tested on: CD2F1 mice, L1210 leukemia ip, survival T/C
Assay: NCI In Vivo Anticancer Drug Screen. Data for tumor model L1210 Leukemia (intraperitoneal) in CD2F1 (CDF1) mice
Conditions: higher = longer survival
Summary of the method: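 Compound-dosed mice with transplantable tumor versus matched vehicle controls; endpoint ratio T/C reported.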

[1] = endpoint: mean survival time, dose: 100.0 mg/kg/injection, schedule: Q04DX003 (ip), vehicle: saline with Tween-80
[2] = endpoint: mean survival time, dose: 200.0 mg/kg/injection, schedule: Q04DX003 (ip), vehicle: saline with Tween-80
[3] = endpoint: mean survival time, dose: 400.0 mg/kg/injection, schedule: Q04DX003 (ip), vehicle: saline with Tween-80
[4] = endpoint: mean survival time, dose: 100.0 mg/kg/injection, schedule: Q01DX009 (ip), vehicle: saline with Tween-80
[5] = endpoint: mean survival time, dose: 200.0 mg/kg/injection, schedule: Q01DX009 (ip), vehicle: saline with Tween-80
[6] = endpoint: mean survival time, dose: 400.0 mg/kg/injection, schedule: Q01DX009 (ip), vehicle: saline with Tween-80
[7] = endpoint: mean survival time, dose: 100.0 mg/kg/injection, schedule: Q01DX001 (ip), vehicle: saline with Tween-80
[8] = endpoint: mean survival time, dose: 200.0 mg/kg/injection, schedule: Q01DX001 (ip), vehicle: saline with Tween-80
[9] = endpoint: mean survival time, dose: 400.0 mg/kg/injection, schedule: Q01DX001 (ip), vehicle: saline with Tween-80
[10] = endpoint: mean survival time, dose: 100.0 mg/kg/injection, schedule: Q04DX003 (ip), vehicle: saline
[11] = endpoint: mean survival time, dose: 200.0 mg/kg/injection, schedule: Q04DX003 (ip), vehicle: saline
[12] = endpoint: mean survival time, dose: 100.0 mg/kg/injection, schedule: Q01DX001 (ip), vehicle: saline
[13] = endpoint: mean survival time, dose: 200.0 mg/kg/injection, schedule: Q01DX001 (ip), vehicle: saline

Measured: T/C

Cc1cc(=O)cc(C(=O)O)o1
inactive: endpoint: mean survival time, dose: 50.0 mg/kg/injection, schedule: Q01DX009 (ip), vehicle: other 107 % of control | endpoint: mean survival time, dose: 100.0 mg/kg/injection, schedule: Q01DX009 (ip), vehicle: other 95 % of control | endpoint: mean survival time, dose: 200.0 mg/kg/injection, schedule: Q01DX009 (ip), vehicle: other 93 % of control

CCCCCCCCCCOc1ccc(/C=N\N=C\c2ccc(OCCCCCCCCCC)cc2)cc1
inactive: [1] 94 % of control | [2] 94 % of control | [3] 92 % of control

CCCCOC(=O)C(C)(C)O
inactive: [1] 96 % of control | [2] 102 % of control | [3] 98 % of control

C=C1C(=O)C2=CC1CCC(=O)C1(C)CCC(OC(C)=O)C(C)(C)C1CC2O (configuration not stated)
inactive: endpoint: mean survival time, dose: 3.75 mg/kg/injection, schedule: Q01DX009 (ip), vehicle: Klucel (hydroxypropylcellulose) (HPC) 97 % of control | endpoint: mean survival time, dose: 7.5 mg/kg/injection, schedule: Q01DX009 (ip), vehicle: Klucel (hydroxypropylcellulose) (HPC) 98 % of control and 100 % of control | endpoint: mean survival time, dose: 15.0 mg/kg/injection, schedule: Q01DX009 (ip), vehicle: Klucel (hydroxypropylcellulose) (HPC) 95 % of control and 98 % of control | endpoint: mean survival time, dose: 30.0 mg/kg/injection, schedule: Q01DX009 (ip), vehicle: Klucel (hydroxypropylcellulose) (HPC) 98 % of control and 101 % of control | endpoint: mean survival time, dose: 60.0 mg/kg/injection, schedule: Q01DX009 (ip), vehicle: Klucel (hydroxypropylcellulose) (HPC) 95 % of control and 96 % of control | endpoint: mean survival time, dose: 120.0 mg/kg/injection, schedule: Q01DX009 (ip), vehicle: Klucel (hydroxypropylcellulose) (HPC) 89 % of control

COC(=O)C(C)NC(=O)CCNC(=O)OCc1ccccc1 (configuration not stated)
inactive: [1] 93 % of control | [2] 93 % of control | [3] 90 % of control

CS(=O)(=O)OC(OS(C)(=O)=O)(OS(C)(=O)=O)OS(C)(=O)=O
inactive: [1] 111 % of control | [2] 105 % of control | [3] 105 % of control

C=C(Br)CNC(=O)C(F)(F)F
inactive: endpoint: mean survival time, dose: 6.25 mg/kg/injection, schedule: Q01DX009 (ip), vehicle: saline 100 % of control | endpoint: mean survival time, dose: 6.25 mg/kg/injection, schedule: Q04DX003 (ip), vehicle: saline 96 % of control | endpoint: mean survival time, dose: 12.5 mg/kg/injection, schedule: Q01DX009 (ip), vehicle: saline 102 % of control | endpoint: mean survival time, dose: 12.5 mg/kg/injection, schedule: Q04DX003 (ip), vehicle: saline 98 % of control | endpoint: mean survival time, dose: 25.0 mg/kg/injection, schedule: Q01DX009 (ip), vehicle: saline 108 % of control | endpoint: mean survival time, dose: 25.0 mg/kg/injection, schedule: Q04DX003 (ip), vehicle: saline 93 % of control

CNC(=O)OCC1C2=C(C(=O)C(C)=C(N)C2=O)N2CC3C(N3C)C12OC (configuration not stated)
inactive: endpoint: mean survival time, dose: 75.0 mg/kg/injection, schedule: Q01DX001 (ip), vehicle: carboxymethylcellulose (CMC) 113 % of control | endpoint: mean survival time, dose: 150.0 mg/kg/injection, schedule: Q01DX001 (ip), vehicle: carboxymethylcellulose (CMC) 113 % of control

CCS(=O)(=O)c1c(C(N)=O)ncn1C1OC(CO)C(O)C1O (configuration not stated)
inactive: endpoint: median survival time, dose: 9.13 mg/kg/injection, schedule: Q01DX005 (ip), vehicle: saline 91 % of control | endpoint: median survival time, dose: 18.25 mg/kg/injection, schedule: Q01DX005 (ip), vehicle: saline 102 % of control | endpoint: median survival time, dose: 36.5 mg/kg/injection, schedule: Q01DX005 (ip), vehicle: saline 102 % of control | endpoint: median survival time, dose: 73.0 mg/kg/injection, schedule: Q01DX005 (ip), vehicle: saline 102 % of control | endpoint: median survival time, dose: 146.0 mg/kg/injection, schedule: Q01DX005 (ip), vehicle: saline 100 % of control

CC1(C)/C(=C/c2ccccc2)C(=O)c2ccccc21
inactive: [4] 100 % of control | [1] 102 % of control | [5] 100 % of control | [2] 92 % of control | [6] 94 % of control | [3] 102 % of control

O=C(C=C(C(F)(F)F)C(F)(F)F)c1ccccc1[N+](=O)[O-]
inactive: endpoint: mean survival time, dose: 12.5 mg/kg/injection, schedule: Q04DX003 (ip), vehicle: other 103 % of control | endpoint: mean survival time, dose: 25.0 mg/kg/injection, schedule: Q04DX003 (ip), vehicle: other 109 % of control

CCC1(C)CCC2=C(CCC3C(C)(C(=O)O)CCCC23C)C1 (configuration not stated)
inactive: [7] 96 % of control | [4] 93 % of control | [8] 91 % of control | [5] 91 % of control | [9] 96 % of control

[Cl][Pt+2][Cl].[NH-]Cc1ccccc1C[NH-]
inactive: endpoint: mean survival time, dose: 3.13 mg/kg/injection, schedule: Q04DX003 (ip), vehicle: dextrose 114 % of control | endpoint: mean survival time, dose: 6.25 mg/kg/injection, schedule: Q04DX003 (ip), vehicle: dextrose 116 % of control | endpoint: mean survival time, dose: 12.5 mg/kg/injection, schedule: Q04DX003 (ip), vehicle: dextrose 124 % of control | endpoint: mean survival time, dose: 25.0 mg/kg/injection, schedule: Q04DX003 (ip), vehicle: dextrose 114 % of control | endpoint: mean survival time, dose: 50.0 mg/kg/injection, schedule: Q04DX003 (ip), vehicle: dextrose 86 % of control

CC1CN(C2(c3ccccc3)CCCCC2)CCC12OCCO2 (configuration not stated)
inactive: endpoint: mean survival time, dose: 100.0 mg/kg/injection, schedule: Q04DX002 (ip), vehicle: saline with Tween-80 93 % of control | endpoint: mean survival time, dose: 200.0 mg/kg/injection, schedule: Q04DX002 (ip), vehicle: saline with Tween-80 97 % of control

CC(=O)NCC(C)OC(C)=O (configuration not stated)
inactive: [10] 101 % of control | [11] 97 % of control | endpoint: mean survival time, dose: 400.0 mg/kg/injection, schedule: Q04DX003 (ip), vehicle: saline 98 % of control

CCCCOC(=O)C1C2CCC(O2)C1C(N)=O (configuration not stated)
inactive: endpoint: mean survival time, dose: 25.0 mg/kg/injection, schedule: Q04DX002 (ip), vehicle: saline with Tween-80 95 % of control | endpoint: mean survival time, dose: 50.0 mg/kg/injection, schedule: Q04DX002 (ip), vehicle: saline with Tween-80 101 % of control

Nc1nc2nc[n-]c2c(=O)[nH]1.[NH2-].[NH2-].[NH2-].[NH2-].[NH2-].[Ru+6]
inactive: endpoint: mean survival time, dose: 6.25 mg/kg/injection, schedule: Q04DX003 (ip), vehicle: water 96 % of control | endpoint: mean survival time, dose: 12.5 mg/kg/injection, schedule: Q04DX003 (ip), vehicle: water 96 % of control | endpoint: mean survival time, dose: 25.0 mg/kg/injection, schedule: Q04DX003 (ip), vehicle: water 102 % of control

O=C(O)C(O)C(O)C1[O][Sb][O]C1CO (configuration not stated)
inactive: endpoint: mean survival time, dose: 50.0 mg/kg/injection, schedule: Q01DX001 (ip), vehicle: saline 97 % of control | endpoint: mean survival time, dose: 50.0 mg/kg/injection, schedule: Q01DX009 (ip), vehicle: saline 95 % of control | endpoint: mean survival time, dose: 50.0 mg/kg/injection, schedule: Q04DX003 (ip), vehicle: saline 91 % of control | [12] 93 % of control | endpoint: mean survival time, dose: 100.0 mg/kg/injection, schedule: Q01DX009 (ip), vehicle: saline 96 % of control | [10] 92 % of control | [13] 98 % of control | endpoint: mean survival time, dose: 200.0 mg/kg/injection, schedule: Q01DX009 (ip), vehicle: saline 96 % of control | [11] 92 % of control

Oc1ccc(NC(=S)Nc2ccccc2)cc1
inactive: [12] 98 % of control | [13] 98 % of control | endpoint: mean survival time, dose: 400.0 mg/kg/injection, schedule: Q01DX001 (ip), vehicle: saline 96 % of control

O/N=C1/CCCC/C1=C/c1ccc(Cl)cc1
inactive: endpoint: mean survival time, dose: 100.0 mg/kg/injection, schedule: Q04DX003 (ip), vehicle: Klucel (hydroxypropylcellulose) (HPC) 98 % of control | endpoint: mean survival time, dose: 200.0 mg/kg/injection, schedule: Q04DX003 (ip), vehicle: Klucel (hydroxypropylcellulose) (HPC) 100 % of control | endpoint: mean survival time, dose: 400.0 mg/kg/injection, schedule: Q04DX003 (ip), vehicle: Klucel (hydroxypropylcellulose) (HPC) 100 % of control

CC(=O)NS(=O)(=O)c1ccc([NH-])cc1.CC(=O)NS(=O)(=O)c1ccc([NH-])cc1.[I][Pt+2][I]
inactive: endpoint: mean survival time, dose: 25.0 mg/kg/injection, schedule: Q04DX003 (ip), vehicle: saline with Tween-80 96 % of control | endpoint: mean survival time, dose: 50.0 mg/kg/injection, schedule: Q04DX003 (ip), vehicle: saline with Tween-80 94 % of control | [1] 107 % of control | [2] 100 % of control | [3] 103 % of control

COCc1ccc(C(=O)O)cc1
inactive: [7] 105 % of control | [8] 96 % of control | [9] 97 % of control

c1ccc2nc3c(cc2c1)CCC3
inactive: endpoint: mean survival time, dose: 100.0 mg/kg/injection, schedule: Q04DX003 (ip), vehicle: saline + alcohol 95 % of control | endpoint: mean survival time, dose: 200.0 mg/kg/injection, schedule: Q04DX003 (ip), vehicle: saline + alcohol 95 % of control

C/C=C(/C(=O)OC)c1ccc([N+](=O)[O-])cc1
inactive: [4] 94 % of control | [1] 92 % of control | [5] 95 % of control | [2] 94 % of control | [6] 94 % of control | [3] 92 % of control

CC(=O)NC(C)C(=O)NC1C(C)OC(=O)C2=C(O)CC(O)C(O)C21 (configuration not stated)
inactive: [1] 92 % of control | [2] 100 % of control | [3] 97 % of control

C=CCCCCCCCCC(=O)NCc1ccccn1
inactive: [7] 93 % of control | [8] 102 % of control | [9] 91 % of control

COc1ccc(OC)c(C2=CCCCCC2)c1
inactive: [1] 101 % of control | [2] 102 % of control | [3] 90 % of control

Source: PubChem BioAssay AID256 (DTP/NCI, 2004)
